Patent publication US20110077206A1, “USE OF HNF4ALPHA FOR TREATMENT OF HUMAN MALIGNANT SOLID TUMORS THROUGH INDUCTION-DIFFERENTIATION THERAPY” (SECOND MILITARY MEDICAL UNIVERSITY, priority 2008, published 2011)

How the values were obtained:
solid tumors = test: In vivo study of control substances on solid tumor differentiation; conditions: background statement of inventors' study
[1] = tested on: Human hepatoma cell lines HepG2 and Hep3B; test: Flow cytometry of CD133+ cell proportion; format: cell-based; conditions: data not shown
Description: 1. […] After 24 hrs, the medium was replaced with fresh DMEM culture solution containing 10% FBS. After three days, the cells were collected, and the CD133/1-PE (Miltenyi Biotec, Auburn, Calif.) was used as primary antibody for incubation, and the proportion of CD133+ cells was determined by flow cytometry.

[2] = tested on: Human hepatoma cell lines HepG2 and Hep3B; test: In vitro effects of control substances on hepatoma cell lines (RT-PCR, immunohistochemistry, morphology); format: cell-based; conditions: for regulation effect on in vitro differentiation of hepatocellular carcinoma cell lines: background statement of inventors' study; for apoptosis / proliferation: HepG2 and Hep3B
Description: Human hepatoma cell lines HepG2 and Hep3B were inoculated onto the six-well plate with a concentration of 5×10^5 cells/dish, and the all-trans retinoic acid, somatostatin, tumor necrosis factor, and arsenic trioxide were added respectively. The total RNA was extracted by Trizol kit, and reverse transcriptase reaction was carried out for 2 hrs. 1 μl diluted reverse transcription product was taken and used as template for PCR amplification to detect the mRNA expression of liver cell-related function genes. The proliferation and apoptosis related proteins such as Cyclin, Bax, Bcl-2 and so on was measured by immunohistochemistry.

Which results are given for `CC1=C(/C=C/C(C)=C/C=C/C(C)=C/C(=O)O)C(C)(C)CCC1` [all-trans retinoic acid]?
in vivo induction of differentiation of solid tumors (solid tumors): can not effectively induce the differentiation of solid tumors; differentiation induction effect on tumor stem cells [1]: no significant differentiation induction effect; regulation effect on in vitro differentiation of hepatocellular carcinoma cell lines [2]: no drugs or proteins with clear differentiation therapy effects

Which results are given for arsenic trioxide?
in vivo induction of differentiation of solid tumors (solid tumors): can not effectively induce the differentiation of solid tumors; differentiation induction effect on tumor stem cells [1]: no significant differentiation induction effect; apoptosis [2]: significantly increased; proliferation [2]: reduced; regulation effect on in vitro differentiation of hepatocellular carcinoma cell lines [2]: no drugs or proteins with clear differentiation therapy effects

Which results are given for tumor necrosis factor?
in vivo induction of differentiation of solid tumors (solid tumors): can not effectively induce the differentiation of solid tumors; apoptosis [2]: significantly increased; proliferation [2]: reduced; regulation effect on in vitro differentiation of hepatocellular carcinoma cell lines [2]: no drugs or proteins with clear differentiation therapy effects
